The target in data set [1] is human metabotropic glutamate receptor mGluR2 (Homo sapiens (Human), UniProt Q14416). The data set can be described thus: [35S]GTPγS binding test, mGluR2. Format: biochemical. The conditions noted are these: inhibition of glutamate (20 μM)-stimulated [35S]GTPγS specific binding, CHO cell membranes. Here is the method:
(§1) Test 1 [^35S]GTPγS binding test
(§2) CHO cells stably expressing human metabotropic glutamate receptors mGluR2 and mGluR3 were cultured at 37° C. under 5% CO2 using a Dulbecco's modified Eagle medium [1% proline, 1 mM sodium pyruvate, 1 mM succinic acid, 1 mM disodium succinate, 100 units/mL penicillin, 100 μg/mL streptomycin, 400 (mGluR2) or 300 (mGluR3) μg/mL hygromycin B, 2 mM L-glutamine (added just before use)] containing 10% dialyzed fetal bovine serum. The cells in a confluent state were washed with PBS(−), then dissociated using a cell scraper, and centrifuged at 1000 rpm for 5 minutes at 4° C. to recover the cells. The obtained pellet was suspended in a 20 mM HEPES buffer (pH 7.4) (mGluR2) or 20 mM HEPES buffer containing 1 mM EDTA (pH 7.4) (mGluR3), and the suspension was homogenized in a Teflon® homogenizer and then centrifuged at 48,000×g for 20 minutes at 4° C. to obtain a pellet again. The obtained pellet was subjected to two additional cycles of washing and centrifugation and then homogenized with the buffer described above to obtain a crude membrane fraction. The crude membrane fraction was diluted with a buffer for a binding test (final concentration: 20 mM HEPES, 100 mM NaCl, 10 mM MgCl2, 10 μM GDP, […], 0.1% BSA) (mGluR2) or (final concentration: 20 mM HEPES, 1 mM EDTA, 100 mM NaCl, 10 mM MgCl2, 10 μM GDP, 10 μg/mL saponin, 0.1% BSA) (mGluR3). To the crude membrane fraction containing 10 μg of membrane proteins/assay, Compounds (II)-1 to (II)-15 were each added, and the mixture was incubated at 30° C. for 20 minutes. Then, glutamate (final concentration: 20 (mGluR2) or 1 (mGluR3) μM) and [^35S]GTPγS (final concentration: 0.15 nM) were added thereto, and the mixture was incubated at 30° C. for 1 hour. The solution thus incubated was filtered by suction onto Whatman GF/C filter, and the filter was washed with 1000 μL of an ice-cooled 20 mM HEPES buffer (pH 7.4) (mGluR2) or 20 mM HEPES buffer containing 1 mM EDTA (pH 7.4) (mGluR3). A scintillation cocktail was added to the obtained filter, and the membrane binding radioactivity was measured using a liquid scintillation counter. The residual radioactivity in the absence of glutamate was defined as nonspecific binding, and the difference from the residual radioactivity in the presence of glutamate was defined as specific binding. From the percent inhibition of specific binding at varying concentrations of Compounds (II)-1 to (II)-15, an inhibition curve was obtained using nonlinear analysis. The concentrations at which Compounds (II)-1 to (II)-15 inhibited 50% of specific binding (IC50) were calculated from the inhibition curve.
A general note: GTPγS is a poorly hydrolysed GTP analogue; its binding reports G protein activation.

Data set [2] addresses human metabotropic glutamate receptor mGluR3 (Homo sapiens (Human), UniProt Q14832). The data set can be described thus: [35S]GTPγS binding test, mGluR3. The note with it: inhibition of glutamate (1 μM)-stimulated [35S]GTPγS specific binding, CHO cell membranes. Format: biochemical. Here is the method: as §1, §2
A short description of data set [3]: Stability test in solution (pH 1.2 and pH 6.5). Format: physicochemical. The note with it: 1 hour; for Compound's percent residue (%) pH 6.5: 20 mM phosphate buffer pH 6.5, 37° C.; for Compound's percent residue (%) pH 1.2: hydrochloric acid solution pH 1.2, 37° C. The procedure:
Test 2: Stability Test in Solution
A test to determine the stability of Inventive Compounds (I-A) or (I) in a hydrochloric acid solution (pH 1.2) and 20 mM phosphate buffer (pH 6.5) was conducted in accordance with the following method.
A compound was dissolved in a hydrochloric acid solution (pH 1.2) containing hydrochloric acid and sodium chloride or a 20 mM phosphate buffer (pH 6.5) containing disodium hydrogenphosphate, sodium dihydrogenphosphate and sodium chloride to prepare a solution with a concentration of about 50 ng/mL (near the saturated concentration when the compound was not dissolved). The solution was incubated at 37° C. for 1 hour and the compound's concentration before and after the incubation was quantified by high-performance liquid chromatography to calculate the percent residue of the compound. Compounds having low solubility were assessed as being not applicable.
The percent residues of representative compounds in the hydrochloric acid solution (pH 1.2) and the 20 mM phosphate buffer (pH 6.5) are shown in the following Table 2.

pIC50: −log10 of the molar value.

human metabotropic glutamate receptor mGluR3, sequence (Q14832 23-879): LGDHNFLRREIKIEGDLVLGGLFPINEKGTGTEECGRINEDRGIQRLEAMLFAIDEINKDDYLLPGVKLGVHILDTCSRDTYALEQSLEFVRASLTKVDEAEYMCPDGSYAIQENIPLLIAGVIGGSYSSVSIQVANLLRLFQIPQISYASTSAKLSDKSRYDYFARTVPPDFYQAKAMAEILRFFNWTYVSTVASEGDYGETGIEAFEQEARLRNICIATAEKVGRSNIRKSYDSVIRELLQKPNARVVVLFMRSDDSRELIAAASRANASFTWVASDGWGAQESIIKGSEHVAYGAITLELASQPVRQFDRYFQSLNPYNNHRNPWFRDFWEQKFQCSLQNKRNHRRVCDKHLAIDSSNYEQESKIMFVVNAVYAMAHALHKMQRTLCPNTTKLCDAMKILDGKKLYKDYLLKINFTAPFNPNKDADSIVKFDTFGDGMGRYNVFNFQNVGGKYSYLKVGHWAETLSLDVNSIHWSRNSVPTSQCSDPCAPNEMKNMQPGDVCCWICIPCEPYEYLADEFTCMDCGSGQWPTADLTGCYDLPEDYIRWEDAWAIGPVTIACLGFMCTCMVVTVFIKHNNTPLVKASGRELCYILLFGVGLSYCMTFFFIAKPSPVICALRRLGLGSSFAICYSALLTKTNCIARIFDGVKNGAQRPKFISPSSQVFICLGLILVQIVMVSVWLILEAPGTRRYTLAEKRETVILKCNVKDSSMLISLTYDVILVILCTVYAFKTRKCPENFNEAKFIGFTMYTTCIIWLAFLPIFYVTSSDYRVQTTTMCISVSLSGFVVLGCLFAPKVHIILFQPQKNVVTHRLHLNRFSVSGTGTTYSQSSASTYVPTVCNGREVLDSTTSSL
human metabotropic glutamate receptor mGluR2, sequence (Q14416 19-872): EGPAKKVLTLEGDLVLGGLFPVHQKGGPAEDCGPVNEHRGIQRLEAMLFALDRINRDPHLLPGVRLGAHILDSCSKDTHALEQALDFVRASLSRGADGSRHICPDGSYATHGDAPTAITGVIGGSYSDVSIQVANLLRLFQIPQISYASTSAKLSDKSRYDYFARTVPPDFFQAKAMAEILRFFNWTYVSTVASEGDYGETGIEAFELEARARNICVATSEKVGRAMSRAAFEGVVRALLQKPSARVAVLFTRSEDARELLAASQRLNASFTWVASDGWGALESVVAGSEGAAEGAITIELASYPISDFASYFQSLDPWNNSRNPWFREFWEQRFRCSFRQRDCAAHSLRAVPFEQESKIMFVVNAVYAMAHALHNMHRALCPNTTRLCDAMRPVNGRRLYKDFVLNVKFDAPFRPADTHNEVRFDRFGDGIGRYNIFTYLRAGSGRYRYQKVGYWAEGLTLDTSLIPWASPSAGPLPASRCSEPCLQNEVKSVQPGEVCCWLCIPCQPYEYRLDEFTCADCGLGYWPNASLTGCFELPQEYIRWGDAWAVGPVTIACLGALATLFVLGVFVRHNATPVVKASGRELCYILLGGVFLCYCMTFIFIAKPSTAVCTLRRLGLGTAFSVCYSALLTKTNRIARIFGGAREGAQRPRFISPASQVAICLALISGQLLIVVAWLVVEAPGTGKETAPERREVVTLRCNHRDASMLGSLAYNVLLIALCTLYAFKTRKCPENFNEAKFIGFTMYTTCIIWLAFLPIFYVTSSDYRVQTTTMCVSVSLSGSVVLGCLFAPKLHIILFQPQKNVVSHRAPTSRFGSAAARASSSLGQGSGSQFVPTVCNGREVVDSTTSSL

Turning to `COc1cc([C@@H](C)O[C@@H]2C[C@@H]3[C@H]([C@]2(N)C(=O)O)[C@@]3(F)C(=O)O)ccc1F` [Compound (II)-4, (1R,2R,3R,5R,6R)-2-amino-6-fluoro-3-[(1R)-1-(4-fluoro-3-methoxyphenyl)ethoxy]bicyclo[3.1.0]hexane-2,6-dicarboxylic acid], the pIC50 – broadly, −log10 of the IC50, conventionally taken in molar units – in data set [1] is 8.28; in data set [2], 8.30.

Take `N[C@]1(C(=O)O)[C@H]2[C@@H](C[C@H]1OCc1ccc(C(F)(F)F)cc1)[C@]2(F)C(=O)O` [Compound (II)-5, (1R,2R,3R,5R,6R)-2-amino-6-fluoro-3-{[4-(triflouromethyl)phenyl]methoxy}bicyclo[3.1.0]hexane-2,6-dicarboxylic acid]: the figures for the pIC50 in data set [1] and in data set [2] were 7.63 and 6.55, respectively.

Take `N[C@]1(C(=O)O)[C@H]2[C@@H](C[C@H]1OCc1cccc(F)c1)[C@]2(F)C(=O)O` [Compound (II)-6, (1R,2R,3R,5R,6R)-2-amino-6-fluoro-3-[(3-fluorophenyl)methoxy]bicyclo[3.1.0]hexane-2.6-dicarboxylic acid]: the pIC50 in data set [1] was 7.56; in data set [2], 7.12.

For the compound `CC(C)CCO[C@@H]1C[C@@H]2[C@H]([C@]1(N)C(=O)O)[C@@]2(F)C(=O)O` [Compound (II)-7, (1R,2R,3R,5R,6R)-2-amino-6-fluoro-3-(3-methylbutoxy)bicyclo[3.1.0]hexane-2,6-dicarboxylic acid], the pIC50 is 7.01 in data set [1] and 6.76 in data set [2].

For the compound `N[C@]1(C(=O)O)[C@H]2[C@@H](C[C@H]1OCc1cccc(Cl)n1)[C@]2(F)C(=O)O` [Compound (II)-8, (1R,2R,3R,5R,6R)-2-amino-3-[(6-chloropyridin-2-yl)methoxy]-6-fluorobicyclo[3.0.1]hexane-2,6-dicarboxylic acid], the values for the pIC50 in data set [1] and in data set [2] were 7.73 and 7.49, respectively.

Regarding `N[C@]1(C(=O)O)[C@H]2[C@@H](C[C@H]1OC1CCCC1)[C@]2(F)C(=O)O` [Compound (II)-9, (1R,2R,3R,5R,6R)-2-amino-3-(cyclopentyloxy)-6-fluorobicyclo[3.1.0]hexane-2,6-dicarboxylic acid], the pIC50 is 7.21 in data set [1] and 7.01 in data set [2].

Regarding `N[C@]1(C(=O)O)[C@H]2[C@@H](C[C@H]1OCc1ccc(Cl)nc1)[C@]2(F)C(=O)O` [Compound (II)-10, (1R,2R,3R,5R,6R)-2-amino-3-[(6-chloropyridin-3-yl)methoxy]-6-fluorobicyclo[3.1.0]hexane-2,6-dicarboxylic acid], the negative logarithm of the IC50 (pIC50) in data set [1] and in data set [2] was 7.30 throughout.

On to `N[C@]1(C(=O)O)[C@H]2[C@@H](C[C@H]1OCc1ccc(Cl)cn1)[C@]2(F)C(=O)O` [Compound (II)-11, (1R,2R,3R,5R,6R)-2-amino-3-[(5-chloropyridin-2-yl)methoxy]-6-fluorobicyclo[3.1.0]hexane-2,6-dicarboxylic acid], for which the negative logarithm of the IC50 (pIC50) in data set [1] was 7.55; in data set [2] it was 7.91.

`C[C@@H](OC(=O)C12CC3CC(CC(C3)C1)C2)OC(=O)[C@@]1(N)[C@H]2[C@@H](C[C@H]1OC1CCCC1)[C@]2(F)C(=O)O` [Example 30, (1R,2R,3R,5R,6R)-2-amino-3-(cyclopentyloxy)-6-fluoro-2-({(1S)-1-[(tricyclo[3.3.1.1^3,7]decane-1-carbonyl)oxy]ethoxy}carbonyl)bicyclo[3.1.0]hexane-6-carboxylic acid]: in data set [3], the “Compound's percent residue (%) pH 6.5” value turned out to be 102% and the “Compound's percent residue (%) pH 1.2” value worked out at 100%.

For the compound `CC(C)[C@@H]1CC[C@@H](C)C[C@H]1OC(=O)O[C@H](C)OC(=O)[C@@]1(N)[C@H]2[C@@H](C[C@H]1OCc1cccc(Cl)n1)[C@]2(F)C(=O)O` [Example 33, (1R,2R,3R,5R,6R)-2-amino-3-[(6-chloropyridin-2-yl)methoxy]-6-fluoro-2-({(1R)-1-[({[(1R,2S,5R)-5-methyl-2-(propan-2-yl)cyclohexyl]oxy}carbonyl)oxy]ethoxy}carbonyl)bicyclo[3.1.0]hexane-6-carboxylic acid], in data set [3], the “Compound's percent residue (%) pH 6.5” value is 97% and the “Compound's percent residue (%) pH 1.2” value is 96%.

On to `Cc1ccc(CO[C@@H]2C[C@@H]3[C@H]([C@]2(N)C(=O)O[C@@H](C)OC(=O)O[C@@H]2C[C@H](C)CC[C@H]2C(C)C)[C@@]3(F)C(=O)O)cc1` [Example 34, (1R,2R,3R,5R,6R)-2-amino-6-fluoro-3-[(4-methylphenyl)methoxy]-2-({(1R)-1-[({[(1R,2S,5R)-5-methyl-2-(propan-2-yl)cyclohexyl]oxy}carbonyl)oxy]ethoxy}carbonyl)bicyclo[3.1.0]hexane-6-carboxylic acid], for which, in data set [3], the “Compound's percent residue (%) pH 6.5” value amounted to 94% and the “Compound's percent residue (%) pH 1.2” value came out at 100%.

`CC(C)(C)C(=O)OCOC(=O)[C@@]1(N)[C@H]2[C@@H](C[C@H]1OCc1ccc(F)cc1)[C@]2(F)C(=O)O` [Example 35, (1R,2R,3R,5R,6R)-2-amino-2-({[(2,2-dimethylpropanoyl)oxy]methoxy}carbonyl)-6-fluoro-3-[(4-fluorophenyl)methoxy]bicyclo[3.1.0]hexane-6-carboxylic acid]: in data set [3], the “Compound's percent residue (%) pH 6.5” value was found to be 97% and the “Compound's percent residue (%) pH 1.2” value is recorded as 100%.

Regarding `N[C@]1(C(=O)OCOC(=O)c2ccccc2)[C@H]2[C@@H](C[C@H]1OCc1ccc(F)cc1)[C@]2(F)C(=O)O` [Example 36, (1R,2R,3R,5R,6R)-2-amino-2-{[(benzoyloxy)methoxy]carbonyl}-6-fluoro-3-[(4-fluorophenyl)methoxy]bicyclo[3.1.0]hexane-6-carboxylic acid], in data set [3], the “Compound's percent residue (%) pH 6.5” value was 99% and the “Compound's percent residue (%) pH 1.2” value was found to be 100%.

As to `N[C@]1(C(=O)OCOC(=O)C2CCCCC2)[C@H]2[C@@H](C[C@H]1OCc1ccc(F)cc1)[C@]2(F)C(=O)O` [Example 37, (1R,2R,3R,5R,6R)-2-amino-2-({[(cyclohexanecarbonyl)oxy]methoxy}carbonyl)-6-fluoro-3-[(4-fluorophenyl)methoxy]bicyclo[3.1.0]hexane-6-carboxylic acid], in data set [3], the “Compound's percent residue (%) pH 6.5” value is recorded as 96% and the “Compound's percent residue (%) pH 1.2” value came to 102%.

`C[C@@H](OC(=O)C12CC3CC(CC(C3)C1)C2)OC(=O)[C@@]1(N)[C@H]2[C@@H](C[C@H]1OCc1ccc(F)cc1)[C@@H]2C(=O)O` [Example 38, (1S,2R,3R,5R,6S)-2-amino-3-[(4-fluorophenyl)methoxy]-2-({(1S)-1-[(tricyclo[3.3.1.1^3,7]decane-1-carbonyl)oxy]ethoxy}carbonyl)bicyclo[3.1.0]hexane-6-carboxylic acid]: in data set [3], the “Compound's percent residue (%) pH 6.5” value is on record as 94% and the “Compound's percent residue (%) pH 1.2” value is given as 97%.

Regarding `CC(C)[C@@H]1CC[C@@H](C)C[C@H]1OC(=O)O[C@H](C)OC(=O)[C@@]1(N)[C@H]2[C@@H](C[C@H]1OCc1ccc(F)cc1)[C@@H]2C(=O)O` [Example 39, (1S,2R,3R,5R,6S)-2-amino-3-[(4-fluorophenyl)methoxy]-2-({(1R)-1-[({[(1R,2S,5R)-5-methyl-2-(propan-2-yl)cyclohexyl]oxy}carbonyl)oxy]ethoxy}carbonyl)bicyclo[3.1.0]hexane-6-carboxylic acid], in data set [3], the “Compound's percent residue (%) pH 1.2” value was 97%.

For the origin of these results see patent publication US10689327B2, “Prodrug amino acid derivative” (TAISHO PHARMACEUTICALS CO., LTD., priority 2016, dated 2020).
